PMC4569415, “Pro-Oxidant Activity of Amine-Pyridine-Based Iron Complexes Efficiently Kills Cancer and Cancer Stem-Like Cells” (PLoS ONE, 2015)

Legend:
MCF-7 and CAPAN-1 cells = test: MTT cell viability with modulators (QVD-Oph, FeCl2); format: cell-based, human; settings: 48 h; for effect of FeCl2 co-incubation on cytotoxicity of the ligand: FeCl2 100 μmol/L co-incubation, 2 at 5 μmol/L, 1 and 5 at 10 μmol/L
Method: The cytotoxic activity of the compounds was determined by MTT reduction assay as described. Compounds were diluted in Milli-Q water to obtain 1 mmol/L stock solutions. Appropriate aliquots of these solutions were diluted in the corresponding cell culture medium to obtain the final working concentrations. Aliquots of 5000 1BR3G cells, 6000 MCF-7, 6000 PC-3 cells, 10 000 CAPAN-1 cells, 4000 MCF 10A cells, 4000 HMLE cells or 4000 CCD-18Co cells were seeded in 96-well plates, 24 h prior to the treatments. Hematological cell lines were seeded at 400 000 cells/mL. Cells were treated with the corresponding compound at concentrations ranging from 0 to 100 μmol/L for 48 h. Three replicates for each compound were used. The IC50 was established for each compound by standard non-linear regression and curve fitting using GraphPad Prism (Graph Pad software Inc., La Jolla, CA, USA).
Fig 4 Induction of caspase activity. (A) The indicated cell lines were treated for 48 h with compounds 1, 2 and 5 (10 μmol/L) and caspase 3/7 activity was measured as indicated in Materials and Methods. Bar charts show the fold increase in caspase activity relative to untreated (control) and represent the mean±SD from three independent experiments performed in triplicate. (B) MCF-7 and CAPAN-1 cells were treated for 48 h with the ligands (10 μM) in the absence (-) or presence (+) of the pan-caspase inhibitor QVD-Oph (20 μM) and cell viability was measured with the MTT assay. […] Data represents the mean ± SD of 3 independent experiments performed in triplicate. The differences between absence and presence of QVD-OPh treatment were statistically significant at * p<0.05, **p<0.01 and ***p<0.001.
Fig 9 Effects of iron on 1, 2 and 5 activity. (A) Effect of 2 h FeCl2 pre-incubation (FeCl2 p) (dotted line) or co-incubation (FeCl2 c) (dashed line) at 1, 10 or 100 μmol/L on the cytotoxicity of 2 (5 μmol/L) in MCF-7 and CAPAN-1 cells. FeCl2 alone was included as a control (solid line). Cell viability was determined after 48 h of treatment by the MTT assay. (B) Effect of FeCl2 pre-incubation or co-incubation (100 μmol/L) on the cytotoxicity of 2 (5 μmol/L), 1 and 5 (10 μmol/L). Cells treated with the ligands alone were included as a reference (control). (C) ROS induction in CAPAN-1 cells after 24 h treatment with 2 (10 μmol/L) alone, together with FeCl2 or after FeCl2 pre-incubation (at 100 μmol/L). Results are presented as a percentage of untreated cells and represent mean±SD of 3 independent experiments. *p < 0.05 versus control cells.

CAPAN-1 cells = test: ROS measurement with H2DCFDA; format: cell-based, human; settings: for fold increase of ROS levels: 5 h; for H2DCFDA fluorescence (ROS): 5.8 at 0 μmol/L; for reduction of compound-induced ROS levels by NAC: CAPAN-1, NAC 5 mmol/L
Method: Cellular ROS content was determined using the 2′,7′-dichlorodihydrofluorescein diacetate probe (H2DCFDA). Cells were seeded in 24-well plates (50 000 cells/well) in phenol red-free DMEM 24 h prior to treatments. Cells were treated with different concentrations of compound 1, 2 and 5 (2.5, 5 or 10 μmol/L) or vehicle alone as a control, for 5 or 24 hours at 37°C. In some experiments, cells were co-treated with the compounds plus 5 mmol/L NAC. After treatments, cells were washed with PBS and incubated with 1 μmol/L H2DCF-DA in PBS for 30 minutes in the dark. After washing, cells were collected with trypsin and analyzed by flow cytometry using a FACS-Calibur flow cytometer (Becton-Dickinson®, Immunofluorometry Systems, Mountain View, CA, USA). The geometric mean fluorescence intensity of 10 000 cells was established using CellQuestTM software (Becton Dickinson). The fluorescence fold-increase versus untreated cells was determined for each treatment.

MCF-7 cells [1] = test: Cellular labile iron pool with calcein-AM; format: cell-based, human; settings: MCF-7, pre-incubation with ligands
MCF-7 cells [2] = test: Cellular DNA damage, p-H2A.X flow cytometry; format: cell-based, human; settings: MCF-7, 10 μmol/L, time-dependent
Method: DNA damage was assessed by monitoring the intensity of p-H2A.X fluorescence using flow cytometry. Briefly, cells were collected with trypsin, washed in PBS and fixed in 3.7% formaldehyde for 15 min on ice. Cells were then permeabilised with 0.2% v/v Triton-X100 for 10 min and incubated with 1:400 rabbit anti-p-(S139)-H2A.X antibody (Cell Signaling Technology, Danvers, MA) for 30 min on ice. After washing in 0.1% Triton-X100 in PBS, cells were incubated with 1:400 anti-rabbit Alexa 555-conjugated antibody (Jackson ImmunoResearch, Newmarket, UK) for 20 min on ice. Analysis was carried out in a FACScan flow cytometer with Flowing software.

[3] = system: supercoiled pUC18 plasmid DNA; test: DNA cleavage by agarose gel electrophoresis; format: biochemical; settings: 25 μM, 1 h, 37°C
Method: DNA cleavage was monitored by agarose gel electrophoresis. A stock solution of pUC18 DNA was freshly prepared in Milli-Q water at a concentration of […] (1512 μmol/L nucleotides; 756 μmol/L bp). Reactions were performed by mixing 0.5 μl of pUC18 with appropriate aliquots of the compounds and 1 μL of activating agent solution (35% wt/vol H2O2 in H2O). Cacodylate buffer (0.1 M, pH 6.0) was added to the mixture to give a final volume of 20 μl. The final concentration of pUC18 DNA was 37.8 μmol/L in nucleotides (18.9 μmol/L bp). Samples were incubated for 1 h at 37°C; reactions were quenched by adding 6 μL of a buffer solution consisting of bromophenol blue (0.25%), xylene cyanol (0.25%), and glycerol (30%). Subsequently, the samples were subjected to electrophoresis in 0.8% agarose gels in 0.5×TBE buffer (0.045 mol/L Tris, 0.045 mol/L boric acid, and 1 mmol/L EDTA) at 100 V for 1 h and 40 min. Gels were stained with ethidium bromide (10 mg/mL in TBE) for 15 min and visualized under UV transillumination. DNA bands were captured using the ProgRes CapturePro 2.7 system and the intensity of each band was quantified with the GelQuant version 2.7 software (DNR Bio-Imaging Systems, Jerusalem, Israel) using a correction factor of 1.31 to compensate for the reduced ethidium bromide uptake of supercoiled plasmid pUC18 DNA [47]. The proportion of different forms of plasmid DNA was established for each treatment. To test the involvement of ROS in strand scission and possible complex–DNA interaction sites, various ROS scavengers and groove binders were added to the reaction mixtures. The scavengers used were Tiron (10 mmol/L), sodium azide (0.4 mol/L), and dimethyl sulfoxide (DMSO, 3 μL). The groove binders used were methyl green (20 mmol/L) and Hoechst (40 μmol/L).

SMILES: c1ccc(CN2CCC[C@H]2[C@@H]2CCCN2Cc2ccccn2)nc1 [Compound 1]
- effect of FeCl2 co-incubation on cytotoxicity of the ligand (MCF-7 and CAPAN-1 cells): inhibited the cytotoxicity of the ligand in CAPAN-1, but not in MCF-7 cells
- fold increase of ROS levels (CAPAN-1 cells; CAPAN-1, 2.5 μmol/L): 1.73 fold
- H2DCFDA fluorescence (ROS) (CAPAN-1 cells; CAPAN-1, 2.5 μmol/L, 24 h): 10.9
- fold increase of ROS levels (CAPAN-1 cells; CAPAN-1, 5 μmol/L): 2.01 fold
- H2DCFDA fluorescence (ROS) (CAPAN-1 cells; CAPAN-1, 5 μmol/L, 24 h): 11.79
- fold increase of ROS levels (CAPAN-1 cells; CAPAN-1, 10 μmol/L): 2.61 fold
- H2DCFDA fluorescence (ROS) (CAPAN-1 cells; CAPAN-1, 10 μmol/L, 24 h): 32.6
- reduction of compound-induced ROS levels by NAC (CAPAN-1 cells): 31.1%
- calcein fluorescence compared with untreated cells (MCF-7 cells [1]): 131.4±13.2%
- increase in phosphorylated H2A.X (MCF-7 cells [2]): three fold
- Proportion of plasmid DNA Form I (supercoiled) ([3]; + H2O2): 52.8%
- Proportion of plasmid DNA Form II (open) ([3]; + H2O2): 47.2%
- Proportion of plasmid DNA Form I (supercoiled) ([3]; absence of H2O2): 84.3%
- Proportion of plasmid DNA Form II (open) ([3]; absence of H2O2): 15.7%

SMILES: CN(C)c1ccnc(CN2CCC[C@H]2[C@@H]2CCCN2Cc2cc(N(C)C)ccn2)c1 [Compound 2]
- effect of FeCl2 co-incubation on cytotoxicity of the ligand (MCF-7 and CAPAN-1 cells): clearly inhibited
- increase in cell viability by pan-caspase inhibitor QVD-Oph (MCF-7 and CAPAN-1 cells; ligand 10 μM, QVD-Oph 20 μM): lack of reversion
- fold increase of ROS levels (CAPAN-1 cells; CAPAN-1, 2.5 μmol/L): 1.39 fold
- fold increase of ROS levels (CAPAN-1 cells; CAPAN-1, 5 μmol/L): 1.66 fold
- fold increase of ROS levels (CAPAN-1 cells; CAPAN-1, 10 μmol/L): 2.53 fold
- reduction of compound-induced ROS levels by NAC (CAPAN-1 cells): 26.8%
- ROS induction with FeCl2 co-incubation (CAPAN-1 cells; CAPAN-1, compound 10 μmol/L 24 h, FeCl2 100 μmol/L co-incubation): abolished ROS induction
- increase in ROS levels in FeCl2-pretreated vs non-pretreated cells (CAPAN-1 cells; CAPAN-1, compound 10 μmol/L 24 h, FeCl2 100 μmol/L pre-incubation): 1.5 fold
- calcein fluorescence compared with untreated cells (MCF-7 cells [1]): 133.8±10.02%
- increase in phosphorylated H2A.X (MCF-7 cells [2]): three fold
- Proportion of plasmid DNA Form I (supercoiled) ([3]; + H2O2): 56.8%
- Proportion of plasmid DNA Form II (open) ([3]; + H2O2): 43.2%
- Proportion of plasmid DNA Form I (supercoiled) ([3]; absence of H2O2): 91.3%
- Proportion of plasmid DNA Form II (open) ([3]; absence of H2O2): 8.7%

SMILES: CN1CCN(Cc2ccccn2)CCN(Cc2ccccn2)CC1 [Compound 5]
- effect of FeCl2 co-incubation on cytotoxicity of the ligand (MCF-7 and CAPAN-1 cells): Neither pretreatment nor co-incubation with FeCl2 affected
- intracellular ROS levels vs untreated cells (CAPAN-1 cells; CAPAN-1, 10 μmol/L, 24 h): 2.4 fold
- calcein fluorescence compared with untreated cells (MCF-7 cells [1]): only a moderate iron-chelating effect
- increase in phosphorylated H2A.X (MCF-7 cells [2]): four fold
- Proportion of plasmid DNA Form I (supercoiled) ([3]; + H2O2): 53.3%
- Proportion of plasmid DNA Form II (open) ([3]; + H2O2): 46.7%
- Proportion of plasmid DNA Form I (supercoiled) ([3]; absence of H2O2): 92.3%
- Proportion of plasmid DNA Form II (open) ([3]; absence of H2O2): 7.7%
